Experimental data published in PubChem BioAssay AID2060904 (Molecular Pharmacology Branch, DTP, NCI, 2025).

Test system: 349418-098-R-PDC complex spheroid viability
Test: Anticancer human tumor 349418-098-R-PDC patient-derived lung adenocarcinoma cell line growth inhibition [RAS]
Details: for IC50: curve of first compound; for viability, T/C: stronger effect = lower value
Method in brief: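 Tumour cells grown as complex spheroids with HUVEC endothelial cells and mesenchymal stem cells, treated with RAS pathway inhibitor combinations. Each agent spans half-log steps from near clinical Cmax, or 10 microM where Cmax is unknown.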
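Note: spheroids exposed to compound for seven days before viability readout.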

CC(Nc1ccc2c(c1)OCCn1cc(N3C(=O)OCC3C(F)F)nc1-2)C(N)=O (centres undefined) + C=CC(=O)N1CCN(c2nc(OCC3CCCN3C)nc3c(F)c(-c4nc(N)cc(C)c4C(F)(F)F)c(Cl)cc23)C(C)C1
IC50 (second compound 0.00316 µM): 72.4 nM | IC50 (second compound 0.01 µM): 149 nM | IC50 (second compound 0.0316 µM): 195 nM | IC50 (second compound 0.1 µM): 114 nM | IC50 (second compound 0.316 µM): 57.8 nM | IC50 (second compound 1 µM): 129 nM | viability, T/C (second compound 0.00316 µM, first compound 0.0316 µM): 66% | viability, T/C (second compound 0.00316 µM, first compound 0.1 µM): 44.4% | viability, T/C (second compound 0.00316 µM, first compound 0.316 µM): 23.6% | viability, T/C (second compound 0.00316 µM, first compound 1 µM): 16.7% | viability, T/C (second compound 0.00316 µM, first compound 3.16 µM): 14.8% | viability, T/C (second compound 0.00316 µM, first compound 10 µM): 9.03% | viability, T/C (second compound 0.01 µM, first compound 0.0316 µM): 82% | viability, T/C (second compound 0.01 µM, first compound 0.1 µM): 57.6% | viability, T/C (second compound 0.01 µM, first compound 0.316 µM): 36.1% | viability, T/C (second compound 0.01 µM, first compound 1 µM): 17.8% | viability, T/C (second compound 0.01 µM, first compound 3.16 µM): 14.9% | viability, T/C (second compound 0.01 µM, first compound 10 µM): 8.95% | viability, T/C (second compound 0.0316 µM, first compound 0.0316 µM): 91% | viability, T/C (second compound 0.0316 µM, first compound 0.1 µM): 69.8% | viability, T/C (second compound 0.0316 µM, first compound 0.316 µM): 36% | viability, T/C (second compound 0.0316 µM, first compound 1 µM): 17.1% | viability, T/C (second compound 0.0316 µM, first compound 3.16 µM): 12.2% | viability, T/C (second compound 0.0316 µM, first compound 10 µM): 13% | viability, T/C (second compound 0.1 µM, first compound 0.0316 µM): 46.2% | viability, T/C (second compound 0.1 µM, first compound 0.1 µM): 58.9% | viability, T/C (second compound 0.1 µM, first compound 0.316 µM): 30% | viability, T/C (second compound 0.1 µM, first compound 1 µM): 19.3% | viability, T/C (second compound 0.1 µM, first compound 3.16 µM): 17.6% | viability, T/C (second compound 0.1 µM, first compound 10 µM): 11.4% | viability, T/C (second compound 0.316 µM, first compound 0.0316 µM): 55.8% | viability, T/C (second compound 0.316 µM, first compound 0.1 µM): 44.9% | viability, T/C (second compound 0.316 µM, first compound 0.316 µM): 30.3% | viability, T/C (second compound 0.316 µM, first compound 1 µM): 19.4% | viability, T/C (second compound 0.316 µM, first compound 3.16 µM): 14% | viability, T/C (second compound 0.316 µM, first compound 10 µM): 10.7% | viability, T/C (second compound 1 µM, first compound 0.0316 µM): 61.2% | viability, T/C (second compound 1 µM, first compound 0.1 µM): 57.3% | viability, T/C (second compound 1 µM, first compound 0.316 µM): 28.4% | viability, T/C (second compound 1 µM, first compound 1 µM): 24.4% | viability, T/C (second compound 1 µM, first compound 3.16 µM): 16.6% | viability, T/C (second compound 1 µM, first compound 10 µM): 11.3%

CCN1CCN(Cc2ccc(Nc3ncc(F)c(-c4cc(F)c5nc(C)n(C(C)C)c5c4)n3)nc2)CC1 + CCn1c(-c2cccnc2C(C)OC)c2c3cc(ccc31)N1CCOC(CC(NC(=O)C(C(C)C)N(C)C(=O)C3(F)CCN(C(=O)C#CC(C)(C)N(C)C)CC3)C(=O)N3CCCC(N3)C(=O)OCC(C)(C)C2)C1
IC50 (second compound 0.000949 µM): 12 nM | IC50 (second compound 0.003 µM): 14.7 nM | IC50 (second compound 0.00949 µM): 13.6 nM | IC50 (second compound 0.03 µM): 8.64 nM | IC50 (second compound 0.0949 µM): 9.8 nM | IC50 (second compound 0.3 µM): 7.33 nM | viability, T/C (second compound 0.000949 µM, first compound 0.00316 µM): 80.1% | viability, T/C (second compound 0.000949 µM, first compound 0.01 µM): 54.1% | viability, T/C (second compound 0.000949 µM, first compound 0.0316 µM): 30.6% | viability, T/C (second compound 0.000949 µM, first compound 0.1 µM): 22.5% | viability, T/C (second compound 0.000949 µM, first compound 0.316 µM): 18.7% | viability, T/C (second compound 0.000949 µM, first compound 1 µM): 13.1% | viability, T/C (second compound 0.003 µM, first compound 0.00316 µM): 85.5% | viability, T/C (second compound 0.003 µM, first compound 0.01 µM): 61% | viability, T/C (second compound 0.003 µM, first compound 0.0316 µM): 28% | viability, T/C (second compound 0.003 µM, first compound 0.1 µM): 20.3% | viability, T/C (second compound 0.003 µM, first compound 0.316 µM): 16.8% | viability, T/C (second compound 0.003 µM, first compound 1 µM): 13.4% | viability, T/C (second compound 0.00949 µM, first compound 0.00316 µM): 96% | viability, T/C (second compound 0.00949 µM, first compound 0.01 µM): 52.2% | viability, T/C (second compound 0.00949 µM, first compound 0.0316 µM): 39.1% | viability, T/C (second compound 0.00949 µM, first compound 0.1 µM): 22.3% | viability, T/C (second compound 0.00949 µM, first compound 0.316 µM): 16.1% | viability, T/C (second compound 0.00949 µM, first compound 1 µM): 14.7% | viability, T/C (second compound 0.03 µM, first compound 0.00316 µM): 80.5% | viability, T/C (second compound 0.03 µM, first compound 0.01 µM): 44.6% | viability, T/C (second compound 0.03 µM, first compound 0.0316 µM): 29% | viability, T/C (second compound 0.03 µM, first compound 0.1 µM): 21.5% | viability, T/C (second compound 0.03 µM, first compound 0.316 µM): 15.9% | viability, T/C (second compound 0.03 µM, first compound 1 µM): 14.4% | viability, T/C (second compound 0.0949 µM, first compound 0.00316 µM): 73.4% | viability, T/C (second compound 0.0949 µM, first compound 0.01 µM): 48.7% | viability, T/C (second compound 0.0949 µM, first compound 0.0316 µM): 34.5% | viability, T/C (second compound 0.0949 µM, first compound 0.1 µM): 16.6% | viability, T/C (second compound 0.0949 µM, first compound 0.316 µM): 20.6% | viability, T/C (second compound 0.0949 µM, first compound 1 µM): 12.5% | viability, T/C (second compound 0.3 µM, first compound 0.00316 µM): 61.5% | viability, T/C (second compound 0.3 µM, first compound 0.01 µM): 45.5% | viability, T/C (second compound 0.3 µM, first compound 0.0316 µM): 33.2% | viability, T/C (second compound 0.3 µM, first compound 0.1 µM): 21.4% | viability, T/C (second compound 0.3 µM, first compound 0.316 µM): 19% | viability, T/C (second compound 0.3 µM, first compound 1 µM): 13.5%
